The subject of data set [1] is Pseudomonas aeruginosa strains. As to conditions: for Antimicrobial activity Fold: fold improvement in geometric mean MIC compared to V681; for MIC CP 204: strain CP 204.
For a further data set, the system named is C. albicans. The method, boiled down: (§1)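 Microtiter dilution in LB no-salt or Mueller-Hinton medium, with BHI for Pseudomonas aeruginosa clinical isolates (final inoculum 1×10^6 CFU/ml). Plates were incubated 24 hours at 37° C. MIC was the lowest peptide concentration inhibiting growth.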
The test system of another data set is E. faecalis. The method, boiled down: as §1
For a further data set, the system named is human red blood cells. The data set can be described thus: Hemolysis time study (0-8 hours, 8-500 μg/ml). The settings on record: 500 μg/ml, after 1 hour incubation. The method, then:
The percent hemolysis of cells was determined spectrophotometrically by comparison with the complete hemolysis of cells in water.
[…] Peptide samples were diluted 2 fold in order to determine the concentration that produced no hemolysis. […] Hemoglobin release was determined spectrophotometrically at 562 nm. The hemolytic titer was the highest 2-fold dilution of the peptide that still caused release of hemoglobin from erythrocytes. The control for no release of hemoglobin was a sample of 1% erythrocytes without any peptide added. […] Peptide samples were diluted 2 fold in order to determine the concentration that produced no hemolysis. […] Hemoglobin release was determined spectrophotometrically at 570 nm. The hemolytic titer was the highest 2-fold dilution of the peptide that still caused release of hemoglobin from erythrocytes. The control for no release of hemoglobin was a sample of 1% erythrocytes without any peptide added.

Data set [2] in a line: CD temperature denaturation study of peptide V681. Format: physicochemical. As to conditions: 50% TFE in 0.05% aq. TFA (pH 2); 50% of α-helical structure denatured. The protocol: We next used temperature profiling during RP-HPLC to determine the self-association ability of the various analogs of V681 which would occur through interaction of the non-polar faces of these amphipathic α-helices. […] In order to investigate the stability of V681 in a hydrophobic environment, we carried out a temperature denaturation study in solution, as monitored by circular dichroism spectroscopy. […]
CD Temperature Denaturation Study of Peptide V681—The native peptide V681 was dissolved in 0.05% aqueous TFA containing 50% TFE, pH 2, loaded into a 0.02 cm fused silica cell and peptide ellipticity scanned from 190 to 250 nm at temperatures of 5, 15, 25, 35, 45, 55, 65 and 80° C. […] ([θ]t−[θ]u)/([θ]5−[θ]u) was calculated and plotted against temperature in order to obtain the thermal melting profiles, where [θ]5 and [θ]u represent the molar ellipticity values for the fully folded and fully unfolded species, respectively. [θ]u was determined in the presence of 8M urea with a value of 1500 deg cm^2 dmol^−1 to represent a totally random coil state (31). The melting temperature (Tm) was calculated as the temperature at which the α-helix was 50% denatured (([θ]t−[θ]u)/([θ]5−[θ]u)=0.5) and the values were taken as a measure of α-helix stability.

The mark [3] stands for this setting: geometric mean of six Pseudomonas aeruginosa clinical isolates.

Values after ≈ are worked out from the molar mass of the structure shown. Read-outs that look alike come from different tables or passages of the source.

Results on three compounds are retold here after patent US8252737B2, “Antimicrobial peptides and methods of use” (priority 2004, dated 2012).

Take `CC[C@H](C)[C@H](NC(=O)[C@H](C)NC(=O)[C@H](CCCCN)NC(=O)[C@H](CC(C)C)NC(=O)[C@H](C)NC(=O)[C@@H](NC(=O)[C@H](Cc1c[nH]cn1)NC(=O)[C@H](CC(C)C)NC(=O)[C@@H](NC(=O)[C@@H](NC(=O)[C@H](CCCCN)NC(=O)[C@@H](C)NC(=O)[C@H](C)NC(=O)[C@H](CO)NC(=O)[C@H](CCCCN)NC(=O)[C@H](Cc1ccccc1)NC(=O)[C@@H](NC(=O)[C@H](CCCCN)NC(=O)[C@H](CC(C)C)NC(=O)[C@H](Cc1ccccc1)NC(=O)[C@H](CO)NC(=O)[C@H](CCCCN)NC(=O)[C@H](Cc1c[nH]c2ccccc12)NC(=O)[C@H](CCCCN)NC(C)=O)[C@@H](C)O)[C@@H](C)O)C(C)C)[C@@H](C)O)C(=O)N[C@@H](CO)C(=O)N[C@@H](CO)C(N)=O` [NAD]: the “MIC (μg/ml) C. xerosis C875 wt” value in the data set with Corynebacterium xerosis came to 1.6 µg/mL (≈ 0.545 µM). In data set [1], the “Antimicrobial activity Fold” value is 1.3 and the “MIC CP 204” value is 7.8 µg/mL (≈ 2.66 µM). In addition, in data set [1] (strains), the “MIC GM” value was 22.1 µg/mL (≈ 7.53 µM), the “MIC M 2” value came out at 7.8 µg/mL (≈ 2.66 µM), the “MIC PA 14” value worked out at 31.3 µg/mL (≈ 10.7 µM) and the “MIC PAK” value is 62.5 µg/mL (≈ 21.3 µM). Besides, in data set [1] (strains), the “MIC PAO 1” value came to 15.6 µg/mL (≈ 5.32 µM) and the “MIC WR 5” value was 62.5 µg/mL (≈ 21.3 µM). In addition, the “MIC (μg/ml) C. albicans” value in the data set on C. albicans turned out to be 12.5 µg/mL (≈ 4.26 µM). The “MIC (μg/ml) E. faecalis C625 wt” value in the data set on E. faecalis is 12.5 µg/mL (≈ 4.26 µM).
For the compound `CC[C@H](C)[C@H](NC(=O)[C@H](C)NC(=O)[C@H](CCCCN)NC(=O)[C@H](CC(C)C)NC(=O)[C@H](C)NC(=O)[C@@H](NC(=O)[C@H](Cc1cnc[nH]1)NC(=O)[C@H](CC(C)C)NC(=O)[C@@H](NC(=O)[C@@H](NC(=O)[C@H](CCCCN)NC(=O)[C@H](CCCCN)NC(=O)[C@H](C)NC(=O)[C@H](CO)NC(=O)[C@H](CCCCN)NC(=O)[C@H](Cc1ccccc1)NC(=O)[C@@H](NC(=O)[C@H](CCCCN)NC(=O)[C@H](CC(C)C)NC(=O)[C@H](Cc1ccccc1)NC(=O)[C@H](CO)NC(=O)[C@H](CCCCN)NC(=O)[C@H](Cc1c[nH]c2ccccc12)NC(=O)[C@H](CCCCN)NC(C)=O)[C@@H](C)O)[C@@H](C)O)C(C)C)[C@@H](C)O)C(=O)N[C@@H](CO)C(=O)N[C@@H](CO)C(N)=O` [NKL], the “MIC (μg/ml) C. xerosis C875 wt” value against Corynebacterium xerosis is 1.6 µg/mL (≈ 0.535 µM). For the same compound, in data set [1] (Pseudomonas aeruginosa clinical isolate CP 204), the “MIC (μg/ml) CP 204” value came out at 7.8 µg/mL (≈ 2.61 µM). In addition, the “MIC (μg/ml) M 2” value in data set [1] (Pseudomonas aeruginosa clinical isolate M 2) was found to be 31.3 µg/mL (≈ 10.5 µM). Besides, in data set [1] (Pseudomonas aeruginosa clinical isolate PA 14), the “MIC (μg/ml) PA 14” value was found to be 62.5 µg/mL (≈ 20.9 µM). Also, the “MIC (μg/ml) PAK” value in data set [1] (Pseudomonas aeruginosa clinical isolate PAK) was 125.0 µg/mL (≈ 41.8 µM). Moreover, in data set [1] (Pseudomonas aeruginosa clinical isolate PAO 1), the “MIC (μg/ml) PAO 1” value was 31.3 µg/mL (≈ 10.5 µM). In data set [1] (Pseudomonas aeruginosa clinical isolate WR 5), the “MIC (μg/ml) WR 5” value came to 250.0 µg/mL (≈ 83.6 µM). Moreover, in data set [1], the “Antimicrobial activity Fold” value was 0.6 and the “MIC CP 204” value turned out to be 7.8 µg/mL (≈ 2.61 µM). Further, in data set [1] (setting [3]), the “MIC GM” value turned out to be 49.6 µg/mL (≈ 16.6 µM). In addition, the “MIC (μg/ml) GM” value in data set [1] (geometric mean of the MIC values for the 6 Pseudomonas aeruginosa clinical isolates) came to 49.6 µg/mL (≈ 16.6 µM). The “MIC M 2” value in data set [1] (strain M 2) is 31.3 µg/mL (≈ 10.5 µM). For the same compound, the “MIC PA 14” value in data set [1] (strain PA 14) worked out at 62.5 µg/mL (≈ 20.9 µM). For the same compound, the “MIC PAK” value in data set [1] (strain PAK) came to 125.0 µg/mL (≈ 41.8 µM). For the same compound, the “MIC PAO 1” value in data set [1] (strain PAO 1) was 31.3 µg/mL (≈ 10.5 µM). The “MIC WR 5” value in data set [1] (strain WR 5) is 250.0 µg/mL (≈ 83.6 µM). For the same compound, the “MIC (μg/ml) C. albicans” value against C. albicans (fungus) worked out at 50.0 µg/mL (≈ 16.7 µM). For the same compound, the “MIC (μg/ml) E. faecalis C625 wt” value in the data set on E. faecalis (wild type strain) was found to be 50.0 µg/mL (≈ 16.7 µM).
For the compound `CC[C@H](C)[C@H](NC(=O)[C@H](C)NC(=O)[C@H](CCCCN)NC(=O)[C@H](CC(C)C)NC(=O)[C@H](C)NC(=O)[C@@H](NC(=O)[C@H](Cc1c[nH]cn1)NC(=O)[C@H](CC(C)C)NC(=O)[C@@H](NC(=O)[C@@H](NC(=O)[C@H](CCCCN)NC(=O)[C@@H](NC(=O)[C@H](C)NC(=O)[C@H](CO)NC(=O)[C@H](CCCCN)NC(=O)[C@H](Cc1ccccc1)NC(=O)[C@@H](NC(=O)[C@H](CCCCN)NC(=O)[C@H](CC(C)C)NC(=O)[C@H](Cc1ccccc1)NC(=O)[C@H](CO)NC(=O)[C@H](CCCCN)NC(=O)[C@H](Cc1c[nH]c2ccccc12)NC(=O)[C@H](CCCCN)NC(C)=O)[C@@H](C)O)C(C)C)[C@@H](C)O)C(C)C)[C@@H](C)O)C(=O)N[C@@H](CO)C(=O)N[C@@H](CO)C(N)=O` [Peptide V681, reference compound], the “MIC (μg/ml) C. xerosis C875 wt” value in the data set with Corynebacterium xerosis came to 3.1 µg/mL (≈ 1.05 µM). For the same compound, the “hemolysis of human red blood cells” value in the data set on human red blood cells was 100%. In addition, the “transition temperature Tm” value in data set [2] came out at 79.3 °C. In data set [1], the “Antimicrobial activity Fold” value is given as 1.0 and the “MIC CP 204” value was 15.6 µg/mL (≈ 5.27 µM). Moreover, in data set [1] (setting [3]), the “MIC GM” value amounted to 27.8 µg/mL (≈ 9.39 µM). For the same compound, in data set [1] (strain M 2), the “MIC M 2” value was 15.6 µg/mL (≈ 5.27 µM). Further, the “MIC PA 14” value in data set [1] (strain PA 14) was 62.5 µg/mL (≈ 21.1 µM). Also, in data set [1] (strain PAK), the “MIC PAK” value is 31.3 µg/mL (≈ 10.6 µM). For the same compound, the “MIC PAO 1” value in data set [1] (strain PAO 1) was found to be 15.6 µg/mL (≈ 5.27 µM). The “MIC WR 5” value in data set [1] (strain WR 5) amounted to 62.5 µg/mL (≈ 21.1 µM). For the same compound, in the data set with C. albicans (fungus), the “MIC (μg/ml) C. albicans” value worked out at 12.5 µg/mL (≈ 4.22 µM). The “MIC (μg/ml) E. faecalis C625 wt” value in the data set with E. faecalis turned out to be 6.3 µg/mL (≈ 2.13 µM).
